Assay results from BigSolDB 2.1.

CONC(=O)Nc1ccc(-c2sc3c(c2CN(C)C)c(=O)n(-c2ccc(OC)nn2)c(=O)n3Cc2c(F)cccc2F)cc1
solubility (mole fraction) (in acetonitrile, 298.15 K): 0.000483 | solubility (mole fraction) (in acetonitrile, 303.15 K): 0.000585 | solubility (mole fraction) (in acetonitrile, 308.15 K): 0.000667 | solubility (mole fraction) (in acetonitrile, 313.15 K): 0.000752 | solubility (mole fraction) (in acetonitrile, 318.15 K): 0.000856 | solubility (mole fraction) (in acetonitrile, 323.15 K): 0.000999 | solubility (mole fraction) (in ethanol, 298.15 K): 0.000134 | solubility (mole fraction) (in ethanol, 303.15 K): 0.000152 | solubility (mole fraction) (in ethanol, 308.15 K): 0.000171 | solubility (mole fraction) (in ethanol, 313.15 K): 0.000209 | solubility (mole fraction) (in ethanol, 318.15 K): 0.00025 | solubility (mole fraction) (in ethanol, 323.15 K): 0.000301 | solubility (mole fraction) (in ethyl acetate, 298.15 K): 0.000368 | solubility (mole fraction) (in ethyl acetate, 303.15 K): 0.0004 | solubility (mole fraction) (in ethyl acetate, 308.15 K): 0.00045 | solubility (mole fraction) (in ethyl acetate, 313.15 K): 0.000505 | solubility (mole fraction) (in ethyl acetate, 318.15 K): 0.000539 | solubility (mole fraction) (in ethyl acetate, 323.15 K): 0.000576 | solubility (mole fraction) (in isopropanol, 298.15 K): 6.6e-05 | solubility (mole fraction) (in isopropanol, 303.15 K): 8.3e-05 | solubility (mole fraction) (in isopropanol, 308.15 K): 0.000103 | solubility (mole fraction) (in isopropanol, 313.15 K): 0.000125 | solubility (mole fraction) (in isopropanol, 318.15 K): 0.000153 | solubility (mole fraction) (in isopropanol, 323.15 K): 0.000191 | solubility (mole fraction) (in methanol, 298.15 K): 0.000438 | solubility (mole fraction) (in methanol, 303.15 K): 0.00051 | solubility (mole fraction) (in methanol, 308.15 K): 0.000578 | solubility (mole fraction) (in methanol, 313.15 K): 0.000639 | solubility (mole fraction) (in methanol, 318.15 K): 0.000713 | solubility (mole fraction) (in methanol, 323.15 K): 0.000774
